Measurements taken from paper PMC11050087, “Polyphenols from Maackia amurensis Heartwood Protect Neuronal Cells from Oxidative Stress and Prevent Herpetic Infection” (International Journal of Molecular Sciences, 2024).

Experiments:
HSV-1 = experiment: Virucidal activity, RT-PCR assay (HSV-1 pretreated with compounds); format: cell-based, HSV-1 strain L2; settings: for Ct: 72 h; for −ΔCt: vs virus control; for activity at 0.1 µg/mL / activity at 1 µg/mL / activity at 10 µg/mL / log reduction at 0.1 µg/mL / log reduction at 1 µg/mL / log reduction at 10 µg/mL: Human alphaherpesvirus 1, 72 h; for activity at 0.1 µg/mL / activity at 1 µg/mL / activity at 10 µg/mL: read-out: 2^−ΔCt; for log reduction at 0.1 µg/mL / log reduction at 1 µg/mL / log reduction at 10 µg/mL: read-out: log10
[1] = system: 6-OHDA-treated Neuro-2a cells; experiment: Mitochondrial membrane potential detection (TMRM) in 6-OHDA-treated cells; format: cell-based, murine; settings: compound 10 µM; 6-OHDA 120 µM; TMRM
Protocol: We determined the effect of polyphenolic compounds from M. amurensis on 6-OHDA-induced mitochondrial dysfunction in Neuro-2a cells (Figure 6a,b).
Figure 6 The effect of polyphenolic compounds isolated from M. amurensis heartwood on mitochondrial membrane potential in Neuro-2a cells treated with 6-OHDA (120 μM) (a,b). Polyphenolic compounds isolated from M. amurensis heartwood were used at concentrations 10, 1, 0.1 μM. The data are presented as means ± SEM of three independent replicates. (*) and (***) indicate, respectively, p < 0.05 and p < 0.001 versus 6-OHDA-treated cells.
The cells were incubated for 1 h in a 96-well plate (1 × 10^4 cells/well) with polyphenolic compounds (0.1, 1 and 10 µM). Then, 6-OHDA (120 µM) was added, and cell suspension was incubated for 1 h. Cells incubated without 6-OHDA and compounds and with 6-OHDA alone were used as positive and negative control, respectively. The tetramethylrhodamine methyl (TMRM) (Sigma-Aldrich, St. Louis, MO, USA) solution (500 nM) was added to each well and cells were incubated for 30 min at 37 °C. The intensity of fluorescence was measured using a PHERAstar FSplate reader (BMG Labtech, Ortenberg, Germany) at λex = 540 nm and λem = 590 nm. The data were processed by MARS Data Analysis v. 3.01R2 (BMG Labtech, Ortenberg, Germany).

[2] = system: 6-OHDA-treated Neuro-2a cells; experiment: ROS analysis in 6-OHDA-treated cells (H2DCF-DA); format: cell-based, murine; settings: 6-OHDA 120 µM; for reduction of ROS levels in 6-OHDA-treated Neuro-2a cells: compound 1 µM
Protocol: We studied the effect of polyphenolic compounds set on ROS levels in 6-OHDA-treated Neuro-2a cells (Figure 5a–d).
Figure 5 The effect of polyphenolic compounds isolated from M. amurensis heartwood on ROS levels in Neuro-2a cells treated with 6-OHDA (120 μM) (a–d). Polyphenolic compounds isolated from M. amurensis heartwood were used at concentrations 10, 1, 0.1 μM. The data are presented as means ± SEM of three independent replicates.
After 24 h of adhesion, Neuro-2a cells (5 × 10^4 cells/mL) were incubated with polyphenolic compounds at concentrations of 0.1, 1, and 10 µM for 1 h. Then, 120 µM of 6-OHDA or 1 mM of PQ were added to each well, and cells were incubated for 1 h. To study the ROS formation, 20 µL of 2,7-dichlorodihydrofluorescein diacetate solution (H2DCF-DA, Sigma-Aldrich, St. Louis, MO, USA) were added to each well, so that the final concentration was 10 µM. Then, the microplate was incubated for 30 min at 37 °C.

| Structure (SMILES) | virucidal activity against HSV-1 by RT-PCR (in words) (HSV-1; 0.1, 1 and 10 µg/mL) | increase of mitochondrial membrane potential [1] | reduction of ROS levels in 6-OHDA-treated Neuro-2a cells [2] | effect on ROS levels in 6-OHDA-treated Neuro-2a cells (in words) ([2]; compounds at 10, 1, 0.1 µM) | Ct (HSV-1; 0.1 µg/mL) | −ΔCt (HSV-1; 0.1 µg/mL) | inhibition of HSV-1 replication by RT-PCR (in words) (HSV-1; 1 µg/mL) | Ct (HSV-1; 1 µg/mL) | −ΔCt (HSV-1; 1 µg/mL) | reduction in viral DNA (HSV-1; 10 µg/mL) | Ct (HSV-1; 10 µg/mL) | −ΔCt (HSV-1; 10 µg/mL) | activity at 0.1 µg/mL (HSV-1) | activity at 1 µg/mL (HSV-1) | activity at 10 µg/mL (HSV-1) | log reduction at 0.1 µg/mL (HSV-1) | log reduction at 1 µg/mL (HSV-1) | log reduction at 10 µg/mL (HSV-1) | anti-HSV-1 activity by RT-PCR (in words) (HSV-1; 10 µg/mL) |
| --- | --- | --- | --- | --- | --- | --- | --- | --- | --- | --- | --- | --- | --- | --- | --- | --- | --- | --- | --- |
| O=C1C[C@@H](c2ccc(O)cc2)Oc2cc(O)ccc21 [Compound 6, liquiritigenin] | did not demonstrate virucidal activity | 8–12% | 15% | dose-dependent effect |  |  |  |  |  |  |  |  |  |  |  |  |  |  |  |
| Oc1cc(O)cc(/C=C/c2ccc3c(c2)O[C@H](c2cc(O)cc(O)c2)[C@@H](c2ccc(O)c(O)c2)O3)c1 [Compound 9, maackin] |  | 8–12% |  |  | 18.6 ± 2.4 | −0.50 ± 0.05 | inhibited the replication of HSV-1 | 25.9 ± 2.8 | −7.8 ± 0.9 | 4.6 log10 | 33.3 ± 4.3 | −15.2 ± 1.8 | 70.7 ± 9.2% | 0.449 ± 0.06% | 0.00266 ± 0.0003% | 0.15 ± 0.02 | 2.3 ± 0.3 | 4.6 ± 0.6 |  |
| Oc1ccc(/C=C/c2cc(O)cc3c2[C@H](c2cc(O)cc(O)c2)[C@@H](c2ccc(O)c(O)c2)O3)cc1 [Compound 13, scirpusin A] |  |  | 43% |  | 18.6 ± 2.4 | −0.50 ± 0.05 | inhibited the replication of HSV-1 | 25.8 ± 3.3 | −7.7 ± 0.8 | 3.9 log10 | 31.2 ± 3.7 | −13.1 ± 1.6 | 70.7 ± 9.2% | 0.481 ± 0.06% | 0.0114 ± 0.001% | 0.15 ± 0.02 | 2.3 ± 0.3 | 3.9 ± 0.5 |  |
| Oc1ccc(/C=C/c2cc(O)cc(O)c2)cc1 [Compound 1, resveratrol] |  | 8–12% | approximately 15% |  | 18.1 ± 2.2 | 0 |  | 20.4 ± 2.8 | −2.3 ± 0.2 |  | 24.6 ± 2.9 | −6.5 ± 0.8 | 100% | 20.3 ± 2.4% | 1.1 ± 0.14% | 0 | 0.7 ± 0.09 | 1.9 ± 0.2 | moderate anti-HSV-1 activity |
